Results on 21 compounds are retold here after PubChem BioAssay AID192 (DTP/NCI, 2004).

For the assay, the system named is BDF1 mice, B16 melanoma ip, median survival T/C. Put plainly: NCI In Vivo Anticancer Drug Screen. Data for tumor model B16 Melanoma (intraperitoneal) in B6D2F1 (BDF1) mice. The note with it: endpoint: median survival time, higher = longer survival. In a few lines:
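In this screen, activity was judged from survival or tumor size in treated versus vehicle-treated tumor-bearing mice, reported as T/C.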

[1] abbreviates: dose: 100.0 mg/kg/injection, schedule: Q01DX009 (ip), vehicle: Klucel (hydroxypropylcellulose) (HPC).
[2] abbreviates: dose: 200.0 mg/kg/injection, schedule: Q01DX009 (ip), vehicle: Klucel (hydroxypropylcellulose) (HPC).
[3] abbreviates: dose: 400.0 mg/kg/injection, schedule: Q01DX009 (ip), vehicle: Klucel (hydroxypropylcellulose) (HPC).
Setting [4] is: dose: 25.0 mg/kg/injection, schedule: Q01DX009 (ip), vehicle: saline with Tween-80.
[5] abbreviates: dose: 50.0 mg/kg/injection, schedule: Q01DX009 (ip), vehicle: saline with Tween-80.
Where [6] appears, read: dose: 100.0 mg/kg/injection, schedule: Q01DX009 (ip), vehicle: saline with Tween-80.
Where [7] appears, read: dose: 200.0 mg/kg/injection, schedule: Q01DX009 (ip), vehicle: saline.

Values joined by “and” are separate entries in the source; they are usually repeats but may differ in a detail not shown here. Equal values may be shown once. Inconclusive results and toxic doses are left out.

For `CN1CCN(Cc2c(O)ccc3c4c(c(=O)oc23)CCCC4)CC1`, the T/C was 105 % of control (dose: 32.0 mg/kg/injection, schedule: Q01DX009 (ip), vehicle: Klucel (hydroxypropylcellulose) (HPC)); 100 % of control (dose: 64.0 mg/kg/injection, schedule: Q01DX009 (ip), vehicle: Klucel (hydroxypropylcellulose) (HPC)); 100 % of control (dose: 128.0 mg/kg/injection, schedule: Q01DX009 (ip), vehicle: Klucel (hydroxypropylcellulose) (HPC)).

Regarding `CC(COC(=O)c1ccccc1)(COC(=O)c1ccccc1)COC(=O)c1ccccc1`, the T/C runs as follows: under setting [1], 110 % of control; under setting [2], 107 % of control; under setting [3], 100 % of control.

In the case of `Cc1cc(C)c(C(=O)CC(=O)c2cccnc2)c(C)c1`, the T/C reads like this: (dose: 100.0 mg/kg/injection, schedule: Q01DX009 (ip), vehicle: saline + Tween-80 + alcohol) 98 % of control; (dose: 200.0 mg/kg/injection, schedule: Q01DX009 (ip), vehicle: saline + Tween-80 + alcohol) 91 % of control.

Regarding `NC(C(=O)O)c1ccc(CBr)cc1` (centres undefined), the T/C is 152 % of control (dose: 12.5 mg/kg/injection, schedule: Q01DX009 (ip), vehicle: acid diluted with saline); 157 % of control (dose: 25.0 mg/kg/injection, schedule: Q01DX009 (ip), vehicle: acid diluted with saline); 152 % of control (dose: 100.0 mg/kg/injection, schedule: Q01DX009 (ip), vehicle: acid diluted with saline); 157 % of control (dose: 200.0 mg/kg/injection, schedule: Q01DX009 (ip), vehicle: acid diluted with saline).

For the compound `O=C(Nc1cccc(C(F)(F)F)c1)c1ccc(C(=O)Nc2cccc(C(F)(F)F)c2)cc1`, the T/C by setting is: under setting [4], 205 % of control; under setting [5], 184 % of control; under setting [6], 90 % of control.

`O=C(Nc1cccc(C(F)(F)F)c1)c1ccc(Cl)c(Cl)c1`: the T/C (dose: 50.0 mg/kg/injection, schedule: Q01DX009 (ip), vehicle: gum acacia) is 105 % of control; the T/C (dose: 100.0 mg/kg/injection, schedule: Q01DX009 (ip), vehicle: gum acacia) was 119 % of control; the T/C (dose: 200.0 mg/kg/injection, schedule: Q01DX009 (ip), vehicle: gum acacia) was 113 % of control; the T/C (dose: 400.0 mg/kg/injection, schedule: Q01DX009 (ip), vehicle: gum acacia) was 100 % of control.

As for `OCC1OC(O)C(O)C(O)C1O` (centres undefined), the T/C reads like this: (dose: 500.0 mg/kg/injection, schedule: Q01DX009 (ip), vehicle: saline) 98 % of control; (dose: 1000.0 mg/kg/injection, schedule: Q01DX009 (ip), vehicle: saline) 93 % of control; (dose: 2000.0 mg/kg/injection, schedule: Q01DX009 (ip), vehicle: saline) 103 % of control; (dose: 4000.0 mg/kg/injection, schedule: Q01DX009 (ip), vehicle: saline) 97 % of control.

Consider `CS(=O)(=O)Nc1ccc(Nc2c3ccccc3nc3cc(Cl)ccc23)cc1`, for which the T/C is, setting by setting: (dose: 3.0 mg/kg/injection, schedule: Q01DX009 (ip), vehicle: saline with Tween-80) 152 % of control; (dose: 37.5 mg/kg/injection, schedule: Q01DX001 (ip), vehicle: saline sonified) 169 % of control; (dose: 75.0 mg/kg/injection, schedule: Q01DX001 (ip), vehicle: saline sonified) 152 % of control.

As to `CC(C)=CCC(OC(=O)C=C(C)C)C1=CC(=O)c2c(O)ccc(O)c2C1=O` (centres undefined), the T/C reads like this: (dose: 0.25 mg/kg/injection, schedule: Q01DX009 (ip), vehicle: Klucel (hydroxypropylcellulose) (HPC)) 99 % of control; (dose: 0.5 mg/kg/injection, schedule: Q01DX009 (ip), vehicle: Klucel (hydroxypropylcellulose) (HPC)) 92 % of control.

For the compound `COC(CBr)c1ccccc1` (centres undefined), the T/C by setting is: (dose: 3.12 mg/kg/injection, schedule: Q01DX009 (ip), vehicle: Klucel (hydroxypropylcellulose) (HPC)) 102 % of control; (dose: 6.25 mg/kg/injection, schedule: Q01DX009 (ip), vehicle: Klucel (hydroxypropylcellulose) (HPC)) 104 % of control; (dose: 10.0 mg/kg/injection, schedule: Q04DX003 (ip), vehicle: Klucel (hydroxypropylcellulose) (HPC)) 97 % of control; (dose: 12.5 mg/kg/injection, schedule: Q01DX009 (ip), vehicle: Klucel (hydroxypropylcellulose) (HPC)) 92 % of control; (dose: 20.0 mg/kg/injection, schedule: Q04DX003 (ip), vehicle: Klucel (hydroxypropylcellulose) (HPC)) 87 % of control; (dose: 40.0 mg/kg/injection, schedule: Q04DX003 (ip), vehicle: Klucel (hydroxypropylcellulose) (HPC)) 87 % of control.

On to `C/C=C(/C)N(C(C)=O)N(C(C)=O)c1ccc([N+](=O)[O-])cc1[N+](=O)[O-]`, for which the T/C was 100 % of control under setting [1], 89 % of control under setting [2] and 89 % of control under setting [3].

Turning to `COc1ccc(NC(=O)Nc2ccc(OC)cc2)cc1`, the T/C under setting [7] was 120 % of control and the T/C (dose: 400.0 mg/kg/injection, schedule: Q01DX009 (ip), vehicle: saline) was 116 % of control.

As for `Cc1nc2c(O)ccc(O)c2nc1C`, the T/C is 106 % of control (dose: 1.56 mg/kg/injection, schedule: Q01DX009 (ip), vehicle: saline with Tween-80); 102 % of control (dose: 3.13 mg/kg/injection, schedule: Q01DX009 (ip), vehicle: saline with Tween-80); 100 % of control (dose: 6.25 mg/kg/injection, schedule: Q01DX009 (ip), vehicle: saline with Tween-80); 89 % of control under setting [5].

`CC(N)C(=O)NC(CC(=O)O)C(=O)O` (centres undefined): the T/C runs as follows: (dose: 12.5 mg/kg/injection, schedule: Q01DX009 (ip), vehicle: saline) 99 % of control; (dose: 25.0 mg/kg/injection, schedule: Q01DX009 (ip), vehicle: saline) 93 % of control; (dose: 50.0 mg/kg/injection, schedule: Q01DX009 (ip), vehicle: saline) 98 % of control; (dose: 100.0 mg/kg/injection, schedule: Q01DX009 (ip), vehicle: saline) 93 % of control; under setting [7], 98 % of control.

Consider `COC(C(=O)C(O)C(C)O)C1CC2C=C3C=C(OC4CC(OC5CC(O)C(OC)C(C)O5)C(OC(C)=O)C(C)O4)C(C)C(=O)C3=C(O)C2=C(O)C1OC1CC(OC2CC(OC3CC(C)(O)C(O)C(C)O3)C(O)C(C)O2)C(O)C(C)O1` (centres undefined), for which the T/C was 108 % of control (dose: 0.25 mg/kg/injection, schedule: Q01DX009 (ip), vehicle: saline with Tween-80); 112 % of control (dose: 0.5 mg/kg/injection, schedule: Q01DX009 (ip), vehicle: saline with Tween-80); 110 % of control and 116 % of control (dose: 1.0 mg/kg/injection, schedule: Q01DX009 (ip), vehicle: saline with Tween-80); 157 % of control (dose: 2.6 mg/kg/injection, schedule: Q01DX009 (ip), vehicle: saline with Tween-80); 154 % of control and 167 % of control (dose: 4.0 mg/kg/injection, schedule: Q01DX009 (ip), vehicle: saline with Tween-80); 165 % of control (dose: 8.0 mg/kg/injection, schedule: Q01DX009 (ip), vehicle: saline with Tween-80).

`Nc1ccccc1SC1CC(=O)N(c2ccccc2)C1=O` (centres undefined): the T/C by setting is: (dose: 25.0 mg/kg/injection, schedule: Q01DX009 (ip), vehicle: Klucel (hydroxypropylcellulose) (HPC)) 97 % of control; (dose: 50.0 mg/kg/injection, schedule: Q01DX009 (ip), vehicle: Klucel (hydroxypropylcellulose) (HPC)) 91 % of control; under setting [1], 90 % of control and 92 % of control.

`CC[C@@]1(O)C(=O)OCc2c1cc1n(c2=O)Cc2cc3cc(OC)ccc3nc2-1`: the T/C is 157 % of control (dose: 0.39 mg/kg/injection, schedule: Q01DX009 (ip), vehicle: other) and 174 % of control (dose: 0.79 mg/kg/injection, schedule: Q01DX009 (ip), vehicle: other).

`COC(=O)C1=CO[C@@H](C)[C@@H]2Cn3ccc4c5ccccc5nc-4c3C[C@H]12`: the T/C reads like this: under setting [4], 94 % of control; under setting [5], 89 % of control.

Take `CCN(CC)CCNc1ccc(N=Nc2cnc3ccccc3c2)c2ccccc12`: the T/C by setting is: under setting [4], 90 % of control; under setting [5], 94 % of control.

With `OCC1OC(n2cnc3c(NO)ncnc32)C(O)C1O` (centres undefined), the T/C reads like this: under setting [2], 109 % of control; under setting [3], 111 % of control.

As to `CC(=Nc1ccccc1)C1=C(O)C(CC(C)C)NC1=O` (centres undefined), the T/C runs as follows: under setting [5], 107 % of control; under setting [6], 103 % of control; (dose: 200.0 mg/kg/injection, schedule: Q01DX009 (ip), vehicle: saline with Tween-80) 96 % of control; (dose: 400.0 mg/kg/injection, schedule: Q01DX009 (ip), vehicle: saline with Tween-80) 88 % of control.
